One test concerns HCV replication. The experiment in a line: Northern blot of HCV RNA in HCV replicon cells after antiviral treatment. The note with it: 10^5 IU/ml overnight. It is filed as cell-based, Hepatitis C virus. As for the experimental part: (§1) FIG. 7A-7B. SPIK in the HCV expressing cells. SPIK RNA was detected in the cells with/without HCV replicon as before. HCV RNA was defined by the hybridization of membrane with radio-labeled probe specified HCV.
(§2) FIG. 7B—HCV replicon cells were incubated with HCV polymerase inhibitor 888 (2 mM) 2 days (Lines 3 & 4 duplicate) and 10^5 IU/ml interferon-a overnight (Lines 5 & 6 duplicate) or left untreated (Line 1 & 2 duplicate). The suppressions of HCV RNA and SPIK RNA then were analyzed by Northern blot as before. The smear detected by HCV probe under the band of HCV RNA probably was the replication form of HCV.
(§3) Over-expression of SPIK RNA in G54 cells can be abrogated by inhibition of HCV replication. Treatment of HCV replicon cells with either 2 mM of the HCV polymerase inhibitor 888 for two days or 10^5 IU/ml interferon-a overnight has reduced HCV replication by approximately 90% [FIG. 7B, lane 3-6]. This is consistent with previous reports of these antiviral agents (55, 56).
On the technique in general: Replicon systems follow genome replication, usually without infectious particles.

Another test deals with SPIK RNA. The experiment in a line: Northern blot of SPIK RNA in G54 HCV replicon cells after antiviral treatment. The conditions noted are these: 10^5 IU/ml overnight. It is filed as cell-based, human. As for the experimental part: as §1, §2, §3
The next test concerns caspase 3. The test is described as follows: Caspase 3 activity in S2-3 and Huh7T cells (Biovision kit). Type of test: cell-based, human. The note with it: 40 hours treatment. As for the experimental part: FIG. 5B. The activation of caspase 3 (CDCA) in S2-3 cells treated with etoposide but not BFA/CHX/Z-VAD. The S2-3 cell and its parental cell Huh7T were either treated with SPDCA inducer BFA/CHX/ZVAD or CDCA inducer etoposide. The caspase activity was determined after […] treatment by Caspase 3 detection kit (Biovision, Mountain View, Calif.).
The same level of apoptosis induced by etoposide in S2-3 cell and Huh7T cell was confirmed by the examination of caspase 3 activity in these cells. After 40 hours treatment, all cells were lysed in […] lysis buffer. […] lysate of each sample was analyzed for caspase 3 activity test using caspase 3 detected kits [Biovision, Mountain View, Calif.]. […] Additionally, the activity of caspase3 was not increased in the cells, in which SPDCA was induced by BFA/CHX, even by double doses [FIG. 5B, B/C/ZX2].

The subject of a further test is S2-3 cells. The test is described as follows: Etoposide induced CDCA in S2-3 cells, annexin stain. It is filed as cell-based, human. The note with it: 400 μM etoposide, 40 hours, data not shown. On the procedure: (§4) FIG. 5A. S2-3 and Huh7T cells were treated with CDCA inducer 400 μM etoposide. After 40 hours, the cells apoptosis was examined in microscope and stained with annexin.
(§5) 10^5 S2-3 and Huh7T cells were seeded in 60 mm dishes. When the cell reached 90% confluent, CDCA inducer etoposide was added. After 28-40 hours, the cell shrinkage, blebbing and detachment from culture was found in both cell lines. At the same time, the strong fluorescence stain by annexin was also observed in both cell lines [FIG. 5A]. The amount of apoptotic cells in two cell lines was very similar. Around 62% S2-3 cell was stained by annexin, while 58% of Huh7T cell was stained after 40 hours treatment [data not shown].

The test system of another test is Huh7T cells. The experiment in a line: Etoposide induced CDCA in Huh7T cells, annexin stain. Type of test: cell-based, human. The conditions noted are these: 400 μM etoposide, 40 hours, data not shown. As for the experimental part:
as §4, §5

In the next test the test system is HepG2.215 cells. The experiment in a line: CDCA induced by etoposide in HepG2.215 cells. It is filed as cell-based, human. The note with it: data not shown. As for the experimental part:
(§6) To study the influence of HCV replication upon SPDCA, G54 and Huh7T cells (its parent cell) were seeded in a 60 mm dish. SPDCA was induced by BFA/CHX/Z-VAD. […] The insensitivity of HCV replicon cell to SPDCA was also seen subsequently by annexin staining. Compared to the parental cells, much fewer HCV expressing cells were stained by annexin after being treated with SPDCA inducers BFA/CHX/Z-VAD [FIG. 8C, Annexin]. DNA fragmentation study also support that the HCV expressing cells were more resistant to apoptosis. 70 hours treatment of BFA/CHX/Z-VAD obviously triggered the DNA fragmentation in Huh7T cell, but not in G54 cells [FIG. 8D]. […] In contrast, both HepG2.215 and G54 are sensitive to CDCA induced by etoposide [data not shown].

Another test relates to G54 cells. The test is described as follows: CDCA induced by etoposide in G54 cells. It is filed as cell-based, human. The conditions noted are these: data not shown. On the procedure:
as §6

The results in this text go back to patent US8193328B2, “Identification of modulators of serine protease inhibitor Kazal and their use as anti-cancer and anti-viral agents” (Philadelphia Health & Education Corporation, priority 2005, dated 2012).

Where a SMILES comes first, the peptide text is derived from it. The star is where a group is joined. Cbz = O=C(OCc1ccccc1)*; CH2F = FC*

For the compound interferon-a, in the test with HCV replication, the “reduction of HCV replication” value is reported as “approximately 90%”. Also, in the test on SPIK RNA, the SPIK level result was “correspondingly decreased with HCV RNA”.
On to `CC(NC(=O)C(NC(=O)OCc1ccccc1)C(C)C)C(=O)NC(CC(=O)O)C(=O)CF` (stereo not drawn) [Z-VAD] (Cbz-Val-Ala-Asp-CH2F; configuration not given here), for which the “caspase 3 activity” value with caspase 3 is recorded as “kept unchanged”.
In the case of `COc1cc([C@@H]2c3cc4c(cc3[C@@H](O[C@@H]3O[C@@H]5CO[C@@H](C)O[C@H]5[C@H](O)[C@H]3O)[C@H]3COC(=O)[C@H]23)OCO4)cc(OC)c1O` [etoposide], the “cells stained by annexin” value with S2-3 cells was “Around 62%”; in the test on Huh7T cells, 58%. For the same compound, the “caspase 3 activity” value with caspase 3 is “at the same level in both cells”. For the same compound, the “sensitivity to CDCA” value in the test on HepG2.215 cells and in the test with G54 cells was “sensitive” each time.
